Test results reported in US12558356B2, “Immunophilin binding agents and uses thereof” (The Regents of the University of California, priority 2019, dated 2026).
Where two headings read alike, the source gives them in different places.

What was measured:
[1] = test system: p-Tyr signaling in Jurkat cells; assay: Phosphotyrosine / TCR signaling in Jurkat cells (Western blot); type: cell-based; conditions: Jurkat cells, 100 nM, 1 h, washed 3 times with PBS
Method: Jurkat cells (1×10^6/mL) were treated with 100 nM of the indicated compounds for 1 h, then were washed 3 times with PBS and resuspended in culture media. Samples were taken at the indicated time points and lysed immediately.

[2] = test system: 139 kinases captured by the probe in Jurkat cells; assay: XO44 chemoproteomic probe kinome occupancy in live cells; type: cell-based; conditions: 100 nM, among 139 kinases captured by XO44 in Jurkat cells
K562 cells = assay: Growth inhibition of K562 cells; type: cell-based; conditions: Homo sapiens
From the text: The unique dependency of FK506-dasatinib on FKBP proteins implied that it may be exploited to modulate the function of these molecules. […]. Meanwhile, the blocker compound […] dasatinib-treated samples (FIG. 13A, lanes 2 and 5). […].

Jurkat cells [3] = assay: Drug washout, phosphotyrosine recovery (residence time in cells); type: cell-based; conditions: 100 nM for 1 h, then drug removed
Jurkat cells [4] = assay: CD3 crosslinking (OKT3)-triggered T cell activation, phosphotyrosine Western blot; type: cell-based; conditions: 100 nM, Jurkat cells stimulated with OKT3
p-S6 level in MCF7 cells = assay: Western blot of p-S6 level in MCF7 cells after combination treatment with Rapa/Rapalink and candidate compound (blockade score); type: cell-based; conditions: 24 h, p-S6 level as fraction of DMSO control; for Rapamycin Blockade: 10 nM Rapa + 10 μM candidate compound; for RapaLink-1 Blockade: 10 nM Rapalink + 10 μM candidate compound
FKBP12 = FKBP12 (Homo sapiens (Human), UniProt P62942); assay: FKBP12 binding assay (fluorescence polarization)
FKBP12, sequence (P62942 whole entry): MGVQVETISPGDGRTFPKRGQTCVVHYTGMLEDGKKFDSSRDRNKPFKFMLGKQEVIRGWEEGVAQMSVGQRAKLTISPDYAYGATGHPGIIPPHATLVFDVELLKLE

[5] = test system: mTOR signaling in brain and skeletal muscle; assay: In vivo brain/periphery mTOR inhibition in mouse model, blocker combined with rapamycin or RapaLink-1
MCF7 cells = assay: FKBP dependence of Rapamycin/RapaLink-1 function in MCF7 cells; type: cell-based; conditions: MCF7 cells dosed at 50% confluency, 37° C., 24 h
Method: FIG. 4. […] MCF7 cells dosed at 50% confluency, 37° C., 24 h.

Row | SMILES | Rapamycin Blockade (p-S6 level in MCF7 cells) | RapaLink-1 Blockade (p-S6 level in MCF7 cells) | Kd (FKBP12; read-out: Kd FKBP12) [nM] | other results
1 | CO[C@H]1C/C(C)=C/[C@@H](CCCC(=O)N2CCN(c3cc(Nc4ncc(C(=O)Nc5c(C)cccc5Cl)s4)nc(C)n3)CC2)C(=O)C[C@H](O)[C@@H](C)[C@@H](/C(C)=C/[C@@H]2CC[C@@H](O)[C@H](OC)C2)OC(=O)[C@@H]2CCCCN2C(=O)C(=O)[C@]2(O)O[C@H]([C@@H](OC)C1)[C@@H](OC)C[C@H]2C [ZZY05-022] |  |  |  | durability of effect after washout [1]: durable after washout
2 | Cc1nc(Nc2ncc(C(=O)Nc3c(C)cccc3Cl)s2)cc(N2CCN(CCO)CC2)n1 [Dasatinib, dasatinib, reference compound] |  |  |  | Number of kinases inhibited >70% [2]: 9; IC50 (K562 cells; K562, absent ZZY05-026 (RapaBlock)): 0.063 nM; IC50 (K562 cells; K562, with 10 μM RapaBlock): 0.16 nM; Time after drug washout to restored phosphotyrosine signal (Jurkat cells [3]): ≤ 1 h; Total phospho-tyrosine level and phosphorylation of TCR signaling proteins (Jurkat cells [4]): dampened
3 | CO[C@H]1C/C(C)=C/[C@@H](CCCC(=O)O)C(=O)C[C@H](O)[C@@H](C)[C@@H](/C(C)=C/[C@@H]2CC[C@@H](O)[C@H](OC)C2)OC(=O)[C@@H]2CCCCN2C(=O)C(=O)[C@]2(O)O[C@H]([C@@H](OC)C1)[C@@H](OC)C[C@H]2C [ZZY05-020] | 2 (40%-70%) | 0 (<20%) | 1.49 | 
4 | CCC(C)(C)C(=O)C(=O)N1CCCC[C@H]1C(=O)O[C@H](CCc1ccc(OC)c(OC)c1)c1cccc(NC(=O)CN2CCN(C)CC2)c1 [ZZY01-072] | 3 (>70%) |  | 12.5 | 
5 | CCC(C)(C)C(=O)C(=O)N1CCCC[C@H]1C(=O)O[C@H](CCc1ccc(OC)c(OC)c1)c1cccc(NC(=O)Cc2cccc[n+]2[O-])c1 [ZZY03-087] | 3 (>70%) | 0 (<20%) | 28.8 | In Vivo ([5]; combination with rapamycin, muscle and brain): Blocks rapamycin in muscle, potentiates rapamycin in brain
6 | CO[C@H]1C/C(C)=C/[C@@H](C/C=C/C(=O)O)C(=O)C[C@H](O)[C@@H](C)[C@@H](/C(C)=C/[C@@H]2CC[C@@H](O)[C@H](OC)C2)OC(=O)[C@@H]2CCCCN2C(=O)C(=O)[C@]2(O)O[C@H]([C@@H](OC)C1)[C@@H](OC)C[C@H]2C [ZZY05-012] | 0 (<20%) | 0 (<20%) |  | Kd (FKBP12): 0.39 nM
7 | CO[C@H]1C/C(C)=C/[C@@H](CCCC(=O)Nc2ccccn2)C(=O)C[C@H](O)[C@@H](C)[C@@H](/C(C)=C/[C@@H]2CC[C@@H](O)[C@H](OC)C2)OC(=O)[C@@H]2CCCCN2C(=O)C(=O)[C@]2(O)O[C@H]([C@@H](OC)C1)[C@@H](OC)C[C@H]2C [ZZY05-064] |  | 3 (>70%) | 0.2 | 
8 | CO[C@H]1C/C(C)=C/[C@@H](CCCc2cccc[n+]2[O-])C(=O)C[C@H](O)[C@@H](C)[C@@H](/C(C)=C/[C@@H]2CC[C@@H](O)[C@H](OC)C2)OC(=O)[C@@H]2CCCCN2C(=O)C(=O)[C@]2(O)O[C@H]([C@@H](OC)C1)[C@@H](OC)C[C@H]2C [ZZY05-092 / ZZY06-041] |  | 3 (>70%) | 2.5 | In Vivo ([5]; 1 mg/kg Rapalink-1 + 40 mg/kg compound, muscle and brain): Dose: 1 mg/kg Rapalink-1 + 40 mg/kg ZZY05- 092 Blocks Rapalink-1 in muscle; Potentiates Rapalink-1 in brain
9 | CO[C@H]1C[C@@H]2CC[C@@H](C)[C@@](O)(O2)C(=O)C(=O)N2CCCC[C@H]2C(=O)O[C@H]([C@H](C)C[C@@H]2CC[C@@H](O)[C@H](OC)C2)CC(=O)[C@H](C)/C=C(\C)[C@@H](O)[C@@H](OC)C(=O)[C@H](C)C[C@H](C)/C=C/C=C/C=C/1C [Rapamycin, rapamycin] |  |  |  | dependence of function on FKBP (MCF7 cells): FKBP is essential for the function
10 | CCC(C)(C)C(=O)C(=O)N1CCCC[C@H]1C(=O)O[C@H](CCc1ccc(OC)c(OC)c1)c1cccc(N(CC(=O)O)CC(=O)O)c1 [ZZY01-060B] | 1 (20-40%) |  | 75 | 
11 | CCC(C)(C)C(=O)C(=O)N1CCCC[C@H]1C(=O)O[C@H](CCc1ccc(OC)c(OC)c1)c1cccc(NC(=O)CN2CCOCC2)c1 [ZZY01-043] | 3 (>70%) |  | 15 | 
12 | CO[C@H]1C/C(C)=C/[C@@H](CCCc2ccccn2)C(=O)C[C@H](O)[C@@H](C)[C@@H](/C(C)=C/[C@@H]2CC[C@@H](O)[C@H](OC)C2)OC(=O)[C@@H]2CCCCN2C(=O)C(=O)[C@]2(O)O[C@H]([C@@H](OC)C1)[C@@H](OC)C[C@H]2C [ZZY05-085] |  | 3 (>70%) |  | In Vivo ([5]; combination with Rapalink-1, dose not given, brain): Appears to have blocked Rapalink-1 in brain; Kd (FKBP12): 1.5 nM
13 | CO[C@H]1C/C(C)=C/[C@@H](C/C=C/c2cccc[n+]2[O-])C(=O)C[C@H](O)[C@@H](C)[C@@H](/C(C)=C/[C@@H]2CC[C@@H](O)[C@H](OC)C2)OC(=O)[C@@H]2CCCCN2C(=O)C(=O)[C@]2(O)O[C@H]([C@@H](OC)C1)[C@@H](OC)C[C@H]2C [ZZY05-060] |  | 1 (20-40%) | 0.62 | 
14 | CCC(C)(C)C(=O)C(=O)N1CCCC[C@H]1C(=O)O[C@H](CCc1ccc(OC)c(OC)c1)c1cccc(OCC(=O)O)c1 [ZZY01-041] | 0 (<20%) |  | 38 | 
15 | CO[C@H]1C/C(C)=C/[C@@H](CCCSCCN(C)C)C(=O)C[C@H](O)[C@@H](C)[C@@H](/C(C)=C/[C@@H]2CC[C@@H](O)[C@H](OC)C2)OC(=O)[C@@H]2CCCCN2C(=O)C(=O)[C@]2(O)O[C@H]([C@@H](OC)C1)[C@@H](OC)C[C@H]2C [ZZY05-013] | 3 (>70%) | 3 (>70%) |  | Kd (FKBP12): 1.36 nM
16 | CCC(C)(C)C(=O)C(=O)N1CCCC[C@H]1C(=O)O[C@H](CCc1ccc(OC)c(OC)c1)c1cccc(NC(=O)CN)c1 [ZZY01-040] | 3 (>70%) |  | 21.3 | 
17 | CO[C@H]1C/C(C)=C/[C@@H](C/C=C/c2ccncc2)C(=O)C[C@H](O)[C@@H](C)[C@@H](/C(C)=C/[C@@H]2CC[C@@H](O)[C@H](OC)C2)OC(=O)[C@@H]2CCCCN2C(=O)C(=O)[C@]2(O)O[C@H]([C@@H](OC)C1)[C@@H](OC)C[C@H]2C [ZZY05-050] |  | 3 (>70%) |  | Kd (FKBP12): 3.6 nM
18 | CCC(C)(C)C(=O)C(=O)N1CCCC[C@H]1C(=O)O[C@H](CCc1ccc(OC)c(OC)c1)c1cccc(NC(=O)CCOCCOCCN)c1 [ZZY03-077] | 3 (>70%) |  | 43.7 | 
19 | C=CC(=O)Nc1cccc([C@@H](CCc2ccc(OC)c(OC)c2)OC(=O)[C@@H]2CCCCN2C(=O)C(=O)C(C)(C)CC)c1 [ZZY02-014] | 3 (>70%) |  | 64 | 
20 | CCC(C)(C)C(=O)C(=O)N1CCCC[C@H]1C(=O)O[C@H](CCc1ccc(OC)c(OC)c1)c1cccc(NC(=O)CNC(=N)N)c1 [ZZY01-065] | 2 (40%-70%) |  | 37.8 | 
21 | CCC(C)(C)C(=O)C(=O)N1CCCC[C@H]1C(=O)O[C@H](CCc1ccc(OC)c(OC)c1)c1cccc(NC(=O)CS)c1 [ZZY02-055] | 0 (<20%) |  | 63.8 | 
22 | CO[C@H]1C/C(C)=C/[C@@H](CCCc2cc[n+]([O-])cc2)C(=O)C[C@H](O)[C@@H](C)[C@@H](/C(C)=C/[C@@H]2CC[C@@H](O)[C@H](OC)C2)OC(=O)[C@@H]2CCCCN2C(=O)C(=O)[C@]2(O)O[C@H]([C@@H](OC)C1)[C@@H](OC)C[C@H]2C [ZZY05-086] |  | 3 (>70%) |  | Kd (FKBP12): 1.6 nM
23 | CCC(C)(C)C(=O)C(=O)N1CCCC[C@H]1C(=O)O[C@H](CCc1ccc(OC)c(OC)c1)c1cccc(OCCN)c1 [ZZY01-038] | 1 (20-40%) |  | 9.4 | 
